The source of these data is patent US20100016392A1, “Pesticidal Aggregates” (priority 2006, published 2010).

Data set [1] can be described thus: Amount of pesticide incorporated into Sokalan PA-15/Arquad 18/50 aggregate. The data set is classed as physicochemical. The conditions noted are these: pesticide incorporated into aggregate with 1 equivalent Sokalan PA-15 and 2 equivalents Arquad 18/50. How it is done:
[…] of the active ingredient listed was placed into a 20 mL vial and 1 equivalent of a 1 molar sodium hydroxide solution added. The mixture was stirred until the active dissolved (0.5 or 1.0 gram of deionized water was added if necessary). One equivalent of Sokalan PA-15 (linear polyacrylic acid sodium salt with low molecular weight of 1200 g/mol) was added and the mixture mixed. 2 equivalents of Arquad 18/50 octadecyltrimethyl ammonium chloride (aqueous isopropanol solution) were added and the mixture was stirred using a vortex mixer. Using a process similar to that described in Example 2, the amount of pesticide incorporated into the aggregate was measured.

For data set [2] the following is noted: cited from earlier work.
The conditions of data set [3]: cited from earlier work. The source holds these as a separate data set.
The nature of data set [4]: Uptake of pesticide into the aggregate, UV-spectroscopy of the supernatant. Type of data set: physicochemical.

As for `CS(=O)(=O)c1ccc(C(=O)C2C(=O)CCCC2=O)c([N+](=O)[O-])c1` [Mesotrione], in data set [1], the Percent a.i. is 6.21.

On to `CCC(CC)Nc1c([N+](=O)[O-])cc(C)c(C)c1[N+](=O)[O-]` [pendimethalin], for which the “octanol/water partition coefficient log P” value in data set [2] is listed as 5.2.

Regarding `COc1cc(OC)nc(NC(=O)NS(=O)(=O)c2ncccc2C(=O)N(C)C)n1` [Nicosulfuron], in data set [3], the pKa is reported as 4.5. Further, the Percent a.i. in data set [1] amounted to 6.96.

`Cc1nn(-c2cc(NS(C)(=O)=O)c(Cl)cc2Cl)c(=O)n1C(F)F` [Sulfentrazone]: the “Uptake of sulfentrazone in the aggregate” value in data set [4] (mixture: Atlox 550S 0.075, C14NBr 0.5, sulfentrazone 0.5 weight %) stood at 74 w/w %; in data set [4] (mixture: Atlox 550S 0.15, C14NBr 0.7, sulfentrazone 0.5 weight %), 83 w/w %; in data set [4] (mixture: Atlox 550S 0.25, C14NBr 0.75, sulfentrazone 0.5 weight %), 77 w/w %; in data set [4] (mixture: Atlox 550S 0.5, C14NBr 1.25, sulfentrazone 0.5 weight %), 90 w/w %; in data set [4] (mixture: REAX 88B 0.25, C14NBr 0.6, sulfentrazone 0.5 weight %), 82 w/w %; in data set [4] (mixture: REAX 88B 0.30, C14NBr 0.8, sulfentrazone 0.5 weight %), 92 w/w %. The “Uptake of sulfentrazone in the aggregate” value in data set [4] (mixture: REAX 88B 0.5, C14NBr 1.0, sulfentrazone 0.5 weight %) is 94 w/w %.

Consider `O=C(O)c1nc(Cl)ccc1Cl` [Clopyralid (Lontrel)], for which, in data set [1], the Percent a.i. was found to be 3.46.

`C[C@@H](Oc1ccc(Oc2cnc3cc(Cl)ccc3n2)cc1)C(=O)O` [Quizalofop-P]: the pKa in data set [3] is listed as above 3. Moreover, in data set [1], the Percent a.i. is on record as 4.76.

On to `CCOc1nc(F)cc2nc(S(=O)(=O)Nc3c(Cl)cccc3C(=O)OC)nn12` [Cloransulam-methyl], for which, in data set [3], the pKa is 5.4. In addition, in data set [1], the Percent a.i. came to 5.11.

For the compound `COc1c(Cl)ccc(Cl)c1C(=O)O` [Dicamba, 3,6-dichloro-2-methoxybenzoic acid], in data set [3], the pKa is recorded as 3. In addition, the Percent a.i. in data set [1] is given as 3.77.

`O=C(NC(=O)c1c(F)cccc1F)Nc1cc(Cl)c(OC(F)(F)C(F)C(F)(F)F)cc1Cl` (centres unmarked) [Lufenuron]: the Percent a.i. in data set [1] worked out at 8.16.

On to `Cc1c(COC(=O)[C@@H]2[C@H](/C=C(\Cl)C(F)(F)F)C2(C)C)cccc1-c1ccccc1` (racemic) [Bifenthrin], for which the “octanol/water partition coefficient log P” value in data set [2] is on record as above 6.

Consider `O=C(O)CNCP(=O)(O)O` [Glyphosate, N-(phosphonomethyl)glycine], for which the pKa in data set [3] is on record as 4.4. The Percent a.i. in data set [1] is reported as 4.70.

As to `O=C(O)COc1ccc(Cl)cc1Cl` [2,4-D, (2,4-dichlorophenoxy)acetic acid], the pKa in data set [3] is listed as 2.9. Besides, in data set [1], the Percent a.i. turned out to be 2.45.

With `CS(=O)(=O)NC(=O)c1cc(Oc2ccc(C(F)(F)F)cc2Cl)ccc1[N+](=O)[O-]` [Fomesafen, 5-[2-chloro-4-(trifluoromethyl)phenoxy]-N-(methylsulfonyl)-2-nitrobenzamide], the Percent a.i. in data set [1] was 7.17.

Consider `N#Cc1cc(Br)c(O)c(Br)c1` [Bromoxynil, 3,5-dibromo-4-hydroxybenzonitrile], for which the Percent a.i. in data set [1] was found to be 4.34.

As to `CCc1cnc(C2=NC(C)(C(C)C)C(=O)N2)c(C(=O)O)c1` (racemic) [Imazethapyr, (+/−)-2-[4,5-dihydro-4-methyl-4-(1-methylethyl)-5-oxo-1H-imidazol-2-yl]-5-ethyl-3-pyridinecarboxylic acid], the Percent a.i. in data set [1] came out at 5.57.

As to `C=C1C[C@]23C[C@@]1(O)CC[C@H]2[C@@]12C=C[C@H](O)[C@@](C)(C(=O)O1)[C@H]2[C@@H]3C(=O)O` [Gibberellic acid], in data set [1], the Percent a.i. is reported as 6.28.

Take `CC1(C(=O)Nc2ccc(O)c(Cl)c2Cl)CCCCC1` [Fenhexamid]: in data set [1], the Percent a.i. came to 4.47.
